Reference: the supplement of paper PMC11208160

Experiment: recombinant UMI read abundance after kanamycin selection (control-corrected) (log10(CPM+1)); higher = more efficient recombination; extreme values may be limits of the assay; sequences stand for … in AGTGCAGAGAAAATCGGCCAGTTTTCTCTGCCTGCAGTCCGCATGCCGTGGGACCCCTTGGGTTCTAACCTGTTGCCTAGATTTATGCAGCGGACTGCCTTTCTCCCAAAGTGATAAACCGG…AGGTTGGTTTCACT; site = the 11-nt donor
Procedure, shortened: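 In Escherichia coli, a pool of donor and donor-binding-loop pairs, each with a 12-nt UMI, was tested for the IS621 bridge recombinase. Plating was on IPTG (0.07 mM) plus kanamycin, or without selection, in two replicates. Recombinant UMIs were amplified by PCR across the donor–target junction and sequenced, and counts were reported as log10(CPM+1) after averaging and control-derived scaling.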
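Note: IS621 bridge recombinase in Escherichia coli cells against a fixed T5 target plasmid.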

Sequence | recombinant UMI read abundance (log10)
AGGTTCCCATGGACCGGTTTTCCCGGTAATCCGTATTTGTG (site AGATTCCCTCA) | 0.438
AGGTTCCCATGGACCGGTTTTCCCGGTAATCCGTATTTGTG (site AGCTTCCCTCA) | 0.0211
AGGTTCCCATGGACCGGTTTTCCCGGTAATCCGTATTTGTG (site AGGATCCCTCA) | 0.163
AGGTTCCCATGGACCGGTTTTCCCGGTAATCCGTATTTGTG (site AGGCTCCCTCA) | 0.149
AGGTTCCCATGGACCGGTTTTCCCGGTAATCCGTATTTGTG (site AGGGTCCCTCA) | 0.0158
AGGTTCCCATGGACCGGTTTTCCCGGTAATCCGTATTTGTG (site AGGTACCCTCA) | 0.00814
AGGTTCCCATGGACCGGTTTTCCCGGTAATCCGTATTTGTG (site AGGTCCCCTCA) | 0.019
AGGTTCCCATGGACCGGTTTTCCCGGTAATCCGTATTTGTG (site AGGTGCCCTCA) | 0.018
AGGTTCCCATGGACCGGTTTTCCCGGTAATCCGTATTTGTG (site AGGTTACCTCA) | 0.00985
AGGTTCCCATGGACCGGTTTTCCCGGTAATCCGTATTTGTG (site AGGTTCACTCA) | 0.0115
AGGTTCCCATGGACCGGTTTTCCCGGTAATCCGTATTTGTG (site AGGTTCCCTAA) | 0.00843
AGGTTCCCATGGACCGGTTTTCCCGGTAATCCGTATTTGTG (site AGGTTCCCTCA) | 0.152
AGGTTCCCATGGACCGGTTTTCCCGGTAATCCGTATTTGTG (site AGGTTCCCTCC) | 0.014
AGGTTCCCATGGACCGGTTTTCCCGGTAATCCGTATTTGTG (site AGGTTCCCTCG) | 0.328
AGGTTCCCATGGACCGGTTTTCCCGGTAATCCGTATTTGTG (site AGGTTCCCTCT) | 0.0108
AGGTTCCCATGGACCGGTTTTCCCGGTAATCCGTATTTGTG (site AGGTTCCCTGA) | 0
AGGTTCCCATGGACCGGTTTTCCCGGTAATCCGTATTTGTG (site AGGTTCCCTTA) | 0
AGGTTCCCATGGACCGGTTTTCCCGGTAATCCGTATTTGTG (site AGGTTCGCTCA) | 0.0252
AGGTTCCCATGGACCGGTTTTCCCGGTAATCCGTATTTGTG (site AGGTTCTCTCA) | 0.634
AGGTTCCCATGGACCGGTTTTCCCGGTAATCCGTATTTGTG (site AGGTTGCCTCA) | 0.0234
AGGTTCCCATGGACCGGTTTTCCCGGTAATCCGTATTTGTG (site AGGTTTCCTCA) | 0.00972
AGGTTCCCATGGACCGGTTTTCCCGGTAATCCGTATTTGTG (site AGTTTCCCTCA) | 0.0518
AGGTTCCCATGGACCGGTTTTCCCGGTAATCCGTATTTGTG (site ATGTTCCCTCA) | 0.0101
AGGTTCCCATGGACCGGTTTTCCCGGTAATCCGTATTTGTG (site CGGTTCCCTCA) | 0.0101
AGGTTCCCATGGACCGGTTTTCCCGGTAATCCGTATTTGTG (site GGGTTCCCTCA) | 0.0086

Sequence | recombinant UMI read abundance (log10)
AGGTTCCCATGGACCGGTTTTCCCGGTAATCCGTATTTGTG (site TGGTTCCCTCA) | 0.00656
AGTAAGGCATGGACCGGTTTTCCCGGTAATCCGTATTTGAT (site AGTAAGGCTAT) | 2.27
AGTAATTCATGGACCGGTTTTCCCGGTAATCCGTATTTGAC (site AGTAATTCTGT) | 0.17
AGTACACCATGGACCGGTTTTCCCGGTAATCCGTATTTGAG (site AGTACACCTCT) | 0.0245
AGTAGCCCATGGACCGGTTTTCCCGGTAATCCGTATTTGGA (site AGTAGCCCTTC) | 0.01
AGTCCATCATGGACCGGTTTTCCCGGTAATCCGTATTTGGG (site AGTCCATCTCC) | 0.00252
AGTCCCACATGGACCGGTTTTCCCGGTAATCCGTATTTGGA (site AGTCCCACTTC) | 0.296
AGTCCTTCATGGACCGGTTTTCCCGGTAATCCGTATTTGGG (site AGTCCTTCTCC) | 0.0141
AGTCTAGCATGGACCGGTTTTCCCGGTAATCCGTATTTGTT (site AGACTAGCTAA) | 0.0182
AGTCTAGCATGGACCGGTTTTCCCGGTAATCCGTATTTGTT (site AGCCTAGCTAA) | 0.0159
AGTCTAGCATGGACCGGTTTTCCCGGTAATCCGTATTTGTT (site AGGCTAGCTAA) | 0.0213
AGTCTAGCATGGACCGGTTTTCCCGGTAATCCGTATTTGTT (site AGTCTAGCTAA) | 0.0147
AGTCTGACATGGACCGGTTTTCCCGGTAATCCGTATTTGGA (site AGTCTGACTTC) | 0.729
AGTCTTTCATGGACCGGTTTTCCCGGTAATCCGTATTTGAC (site AGACTTTCTGT) | 0
AGTCTTTCATGGACCGGTTTTCCCGGTAATCCGTATTTGAC (site AGCCTTTCTGT) | 0.743
AGTCTTTCATGGACCGGTTTTCCCGGTAATCCGTATTTGAC (site AGGCTTTCTGT) | 0
AGTCTTTCATGGACCGGTTTTCCCGGTAATCCGTATTTGAC (site AGTCTTTCTGT) | 0
AGTGACTCATGGACCGGTTTTCCCGGTAATCCGTATTTGCG (site AGTGACTCTCG) | 2.88
AGTGAGACATGGACCGGTTTTCCCGGTAATCCGTATTTGGG (site AGTGAGACTCC) | 0.00984
AGTGATCCATGGACCGGTTTTCCCGGTAATCCGTATTTGGT (site AGTGATCCTAC) | 0.0964
AGTGCGACATGGACCGGTTTTCCCGGTAATCCGTATTTGCA (site AGTGCGACTTG) | 1.38
AGTGGAACATGGACCGGTTTTCCCGGTAATCCGTATTTGTC (site AGTGGAACTGA) | 2.3
AGTGGCCCATGGACCGGTTTTCCCGGTAATCCGTATTTGCG (site AGTGGCCCTCG) | 0.0207
AGTGGCGCATGGACCGGTTTTCCCGGTAATCCGTATTTGTC (site AGTGGCGCTGA) | 2.86
AGTTACGCATGGACCGGTTTTCCCGGTAATCCGTATTTGAT (site AGTTACGCTAT) | 1.72

Sequence | recombinant UMI read abundance (log10)
AGTTCCCCATGGACCGGTTTTCCCGGTAATCCGTATTTGTA (site AGTTCCCCTTA) | 0.124
AGTTCCCCATGGACCGGTTTTCCCGGTAATCCGTATTTGTA (site CGTTCCCCTTA) | 0.025
AGTTCCCCATGGACCGGTTTTCCCGGTAATCCGTATTTGTA (site GGTTCCCCTTA) | 0.013
AGTTCCCCATGGACCGGTTTTCCCGGTAATCCGTATTTGTA (site TGTTCCCCTTA) | 0.0167
ATAAGAACATGGACCGGTTTTCCCGGTAATCCGTATTTGGG (site ATAAGAACTCC) | 0.884
ATAAGATCATGGACCGGTTTTCCCGGTAATCCGTATTTGAA (site ATAAGATCTTT) | 2.8
ATAAGGACATGGACCGGTTTTCCCGGTAATCCGTATTTGAC (site ATAAGGACTGT) | 2.34
ATAAGGACATGGACCGGTTTTCCCGGTAATCCGTATTTGAC (site ATAAGGCCTGT) | 0
ATAAGGACATGGACCGGTTTTCCCGGTAATCCGTATTTGAC (site ATAAGGGCTGT) | 2.31
ATAAGGACATGGACCGGTTTTCCCGGTAATCCGTATTTGAC (site ATAAGGTCTGT) | 1.93
ATAAGGCCATGGACCGGTTTTCCCGGTAATCCGTATTTGGC (site ATAAGGCCTGA) | 0
ATAAGGCCATGGACCGGTTTTCCCGGTAATCCGTATTTGGC (site ATAAGGCCTGC) | 2.31
ATAAGGCCATGGACCGGTTTTCCCGGTAATCCGTATTTGGC (site ATAAGGCCTGG) | 0
ATAAGGCCATGGACCGGTTTTCCCGGTAATCCGTATTTGGC (site ATAAGGCCTGT) | 0.68
ATACAAGCATGGACCGGTTTTCCCGGTAATCCGTATTTGAC (site ATACAAGCTGT) | 2.38
ATACCACCATGGACCGGTTTTCCCGGTAATCCGTATTTGGT (site ATACCACCTAC) | 0.0125
ATACCGTCATGGACCGGTTTTCCCGGTAATCCGTATTTGGG (site ATACCGTCTCC) | 0.0133
ATACTATCATGGACCGGTTTTCCCGGTAATCCGTATTTGTT (site ATACTATCTAA) | 2.54
ATAGCATCATGGACCGGTTTTCCCGGTAATCCGTATTTGCA (site ACAGTATCTTG) | 1.65
ATAGCATCATGGACCGGTTTTCCCGGTAATCCGTATTTGCA (site ATAGCATCTTG) | 2.9
ATAGGTGCATGGACCGGTTTTCCCGGTAATCCGTATTTGGC (site ATAGGTGCTGC) | 3.17
ATAGTATCATGGACCGGTTTTCCCGGTAATCCGTATTTGTA (site ACAGTATCTTG) | 0.029
ATAGTATCATGGACCGGTTTTCCCGGTAATCCGTATTTGTA (site ATAGTATCTTA) | 3.14
ATAGTCGCATGGACCGGTTTTCCCGGTAATCCGTATTTGCG (site ATAGTCGCTCG) | 1.37
ATAGTCGCATGGACCGGTTTTCCCGGTAATCCGTATTTGCG (site CTAGTCGCTCG) | 0.303
